Measurements: the NIST ThermoML archive (doi:10.1016/j.jct.2016.08.001)

Assays:
[1] = xn = mol fraction of the nth substance listed; conditions: 100 kPa, Liquid; for speed of sound: Frequency=3 MHz, Sing-around technique in a fixed-path interferometer; for mass density: Vibrating tube method
[2] = refractive index (Na D-line) (dimensionless); xn = mol fraction of the nth substance listed; conditions: 100 kPa, Liquid, Standard Abbe refractometry

O=Cc1ccccc1 [benzaldehyde] + CCOC(=O)OCC
Conditions | mass density, [1] [kg/m3] | refractive index, [2] | speed of sound, [1] [m/s]
298.15 K, x2 = 0 | 1041 | 1.541 | 1457.3
298.15 K, x2 = 0.0933 | 1035 | 1.5244 | 1430.7
298.15 K, x2 = 0.1658 | 1030.2 | 1.5118 | 1409
298.15 K, x2 = 0.267 | 1023.4 | 1.4947 | 1379.1
298.15 K, x2 = 0.36 | 1016.9 | 1.4794 | 1352.5
298.15 K, x2 = 0.4554 | 1010.4 | 1.4638 | 1325.4
298.15 K, x2 = 0.5605 | 1003 | 1.4472 | 1296.3
298.15 K, x2 = 0.6547 | 996.2 | 1.4325 | 1269.8
298.15 K, x2 = 0.7716 | 987.4 | 1.415 | 1238.2
298.15 K, x2 = 0.8473 | 981.4 | 1.4039 | 1217
303.15 K, x2 = 0 | 1036.5 | 1.5383 | 1438.9
303.15 K, x2 = 0.0933 | 1030.6 | 1.522 | 1412.1
303.15 K, x2 = 0.1658 | 1025.7 | 1.5094 | 1389.9
303.15 K, x2 = 0.267 | 1018.7 | 1.4924 | 1359.9
303.15 K, x2 = 0.36 | 1012.2 | 1.4771 | 1333.1
303.15 K, x2 = 0.4554 | 1005.4 | 1.4616 | 1305.8
303.15 K, x2 = 0.5605 | 997.9 | 1.445 | 1276.5
303.15 K, x2 = 0.6547 | 991 | 1.4304 | 1249.9
303.15 K, x2 = 0.7716 | 982.1 | 1.4129 | 1218.1
303.15 K, x2 = 0.8473 | 976 | 1.4017 | 1196.8
308.15 K, x2 = 0 | 1032 | 1.5357 | 1420.6
308.15 K, x2 = 0.0933 | 1026.2 | 1.5195 | 1393.5
308.15 K, x2 = 0.1658 | 1021.2 | 1.5071 | 1371.1
308.15 K, x2 = 0.267 | 1014.1 | 1.4902 | 1340.8
308.15 K, x2 = 0.36 | 1007.4 | 1.475 | 1313.8
308.15 K, x2 = 0.4554 | 1000.6 | 1.4596 | 1286.3
308.15 K, x2 = 0.5605 | 992.9 | 1.443 | 1256.9
308.15 K, x2 = 0.6547 | 985.8 | 1.4283 | 1230.1
308.15 K, x2 = 0.7716 | 976.8 | 1.4108 | 1198.1
308.15 K, x2 = 0.8473 | 970.7 | 1.3995 | 1176.7
313.15 K, x2 = 0 | 1027.5 | 1.5332 | 1402.4
313.15 K, x2 = 0.0933 | 1021.8 | 1.5171 | 1375
313.15 K, x2 = 0.1658 | 1016.7 | 1.5048 | 1352.4
313.15 K, x2 = 0.267 | 1009.5 | 1.488 | 1321.8
313.15 K, x2 = 0.36 | 1002.7 | 1.4728 | 1294.6
313.15 K, x2 = 0.4554 | 995.6 | 1.4574 | 1267
313.15 K, x2 = 0.5605 | 987.9 | 1.4409 | 1237.4
313.15 K, x2 = 0.6547 | 980.7 | 1.4262 | 1210.4
313.15 K, x2 = 0.7716 | 971.6 | 1.4087 | 1178.3
313.15 K, x2 = 0.8473 | 965.4 | 1.3973 | 1156.8
318.15 K, x2 = 0 | 1023 | 1.5307 | 1384.4
318.15 K, x2 = 0.0933 | 1017.3 | 1.515 | 1356.6
318.15 K, x2 = 0.1658 | 1012.2 | 1.5028 | 1333.8
318.15 K, x2 = 0.267 | 1004.9 | 1.486 | 1303.3
318.15 K, x2 = 0.36 | 997.9 | 1.4708 | 1275.8
318.15 K, x2 = 0.4554 | 990.7 | 1.4555 | 1248
318.15 K, x2 = 0.5605 | 982.8 | 1.439 | 1218.3
318.15 K, x2 = 0.6547 | 975.6 | 1.4242 | 1191.5
318.15 K, x2 = 0.7716 | 966.4 | 1.4067 | 1159
318.15 K, x2 = 0.8473 | 960.1 | 1.3952 | 1137.3
323.15 K, x2 = 0 | 1018.4 | 1.5282 | 1366.4
323.15 K, x2 = 0.0933 | 1012.8 | 1.5124 | 1339.3
323.15 K, x2 = 0.1658 | 1007.7 | 1.5003 | 1316.3
323.15 K, x2 = 0.267 | 1000.2 | 1.4836 | 1285.3
323.15 K, x2 = 0.36 | 993.1 | 1.4685 | 1257.7
323.15 K, x2 = 0.4554 | 985.8 | 1.4532 | 1229.8
323.15 K, x2 = 0.5605 | 977.7 | 1.4368 | 1199.9
323.15 K, x2 = 0.6547 | 970.4 | 1.4221 | 1173.1
323.15 K, x2 = 0.7716 | 961.1 | 1.4046 | 1140.6
323.15 K, x2 = 0.8473 | 954.8 | 1.3931 | 1118.8
